Each structure is given as a SMILES string. Some results are limits rather than exact numbers.

The target of the assay is T1, Estrogen receptor α (ERα) (Homo sapiens, UniProt P03372).
T1 construct: host or cells: ER-α-UAS-bla GripTite 293 cells
T1 sequence (P03372 311-547 limits assumed): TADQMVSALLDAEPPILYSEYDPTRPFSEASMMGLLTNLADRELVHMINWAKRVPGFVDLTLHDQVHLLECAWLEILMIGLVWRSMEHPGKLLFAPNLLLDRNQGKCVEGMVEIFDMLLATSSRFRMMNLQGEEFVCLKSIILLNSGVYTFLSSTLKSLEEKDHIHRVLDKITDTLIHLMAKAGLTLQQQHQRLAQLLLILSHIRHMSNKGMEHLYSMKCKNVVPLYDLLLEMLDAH
Nature of the assay: GeneBLAzer Cell-Based Nuclear Receptor Assay (beta-lactamase reporter), EC50 response value to ERα. To be noted: ER-α-UAS-bla GripTite 293 cells, agonist mode, 16-24 hours at 37° C., monomers tested at 7 to 250000 nM. As to the method: The plate is incubated for 16-24 hours at 37° C./5% CO2 in a humidified incubator. […] The plate is read on a fluorescence plate reader.
The following equations are used for each set of data points: […]

For the compound `O=S(=O)(c1ccc(O)cc1)c1ccc(O)cc1` [Bisphenol S, 4,4′-dihydroxy-diphenylsulfone, reference compound], the EC50 is 4.14 µM.

`O=S(=O)(c1ccc(Oc2ccc(O)cc2)cc1)c1ccc(Oc2ccc(O)cc2)cc1` [Example 3 (HBS), Bis-4-hydroxyphenoxydiphenylsulfone] registered an EC50 of over 79.1 µM.

On to `O=S(=O)(c1ccc(O)cc1)c1ccc(-c2ccc(S(=O)(=O)c3ccc(O)cc3)cc2)cc1` [Example 1 (HPS), Hydroxysulfonebiphenyl], for which the EC50 was over 79.1 µM.

`CC(C)(c1ccc(O)cc1)c1ccc(C(C)(C)c2ccc(O)cc2)cc1` [BisP, α,α′-Bis(4-hydroxyphenyl)-1,4-diisopropylbenzene, reference compound] showed an EC50 of over 25 µM.

In turn, `O=P(c1ccccc1)(c1ccc(Oc2ccc(O)cc2)cc1)c1ccc(Oc2ccc(O)cc2)cc1` [Example 5 (HPPPO), Bis-4-hydroxyphenoxyphenylphosphine oxide] showed a concentration for a half-maximal effect (EC50) of over 250 µM.

One may read the EC50 as the concentration needed to bring the measured effect to its halfway point.

Source of the values: patent US20140113093A1, “Polymers with reduced estrogenic activity” (SOLVAY SPECIALITY POLYMERS USA, LLC, priority 2011, published 2014).
